According to patent US20050222158A1, “Method of treating migraine headaches using calcitonin gene related peptide mimetics” (priority 2004, published 2005):

Molecular target: T1, human CGRP receptor (Homo sapiens, UniProt O60894+Q16602)
T1 construct: SK-N-MC cells that endogenously express the human CGRP receptor; endogenous in cells; host or cells: SK-N-MC cells (membrane homogenates)
Test: [125I]-CGRP radioligand binding assay, SK-N-MC cell homogenates
Details: 40 pM [125I]-CGRP, room temperature
Protocol: Tissue culture. SK-N-MC cells were grown at 37° C. in 5% CO2 as a monolayer in medium consisting of MEM with Earle's salts and L-glutamine (Gibco) supplemented with 10% fetal bovine serum (Gibco). Radioligand binding assays. Cells were rinsed twice with phosphate-buffered saline (155 mM NaCl, 3.3 mM Na2HPO4, 1.1 mM KH2PO4, pH 7.4), and incubated for 5-10 min. at 4° C. in hypotonic lysis buffer consisting of 10 mM Tris (pH 7.4) and 5 mM EDTA. Cells were transferred from plates to polypropylene tubes (16×100 mm), homogenized and centrifuged at 32,000×g for 30 min. Pellets were resuspended in buffer consisting of 50 mM Tris (pH 7.4) and 1 mM EDTA, homogenized, and centrifuged again at 32,000×g for 30 min. Pellets were resuspended in 100 mM Tris-Cl pH 7.5, 10 mM MgCl2, 0.1% mammalian protease inhibitor cocktail (Sigma) and stored at −80° C. until needed. On the day of an experiment, homogenates were thawed and homogenized again. Binding of [^125I]-CGRP (NEN) was carried out in buffer containing 50 mM Tris-Cl pH 7.5, 5 mM MgCl2, 0.5% BSA. Homogenates (3.5 μg protein/well) were incubated with competitor compounds (solubilized in 100% DMSO at 100× their final assay concentrations) for one hour at room temperature. Then [^125I]-CGRP was added (40 pM final concentration) and the reaction incubated for one additional hour at room temperature. […]

T1 sequence (Q16602 23-461): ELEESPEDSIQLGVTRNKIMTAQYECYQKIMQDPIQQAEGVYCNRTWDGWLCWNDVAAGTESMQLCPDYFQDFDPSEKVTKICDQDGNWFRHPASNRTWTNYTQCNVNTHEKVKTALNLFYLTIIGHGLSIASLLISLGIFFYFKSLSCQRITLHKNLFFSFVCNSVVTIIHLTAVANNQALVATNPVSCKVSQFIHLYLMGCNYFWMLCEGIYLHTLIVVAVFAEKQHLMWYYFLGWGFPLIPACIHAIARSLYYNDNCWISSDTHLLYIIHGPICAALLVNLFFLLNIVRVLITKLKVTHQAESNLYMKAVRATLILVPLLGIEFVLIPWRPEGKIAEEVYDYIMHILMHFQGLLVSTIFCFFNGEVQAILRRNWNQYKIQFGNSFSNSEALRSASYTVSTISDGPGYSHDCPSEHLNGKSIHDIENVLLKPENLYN
T1 sequence (O60894 27-148): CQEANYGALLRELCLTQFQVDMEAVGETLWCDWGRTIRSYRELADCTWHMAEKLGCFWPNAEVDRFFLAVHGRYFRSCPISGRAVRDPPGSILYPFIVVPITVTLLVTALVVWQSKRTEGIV

Compound: CC(=O)c1ccc(NC(=O)N2CCC(=O)N3[C@@H]2CN(CCc2cccc(F)c2)C(=O)[C@@H]3CC(=O)OC2[C@H]3C[C@@H]4C[C@@H](C[C@H]2C4)C3)cc1 (stereo partly drawn) [Compound 29, {1-(4-Acetyl-phenylcarbamoyl)-(6S,9aS)-8-[2-(3-fluoro-phenyl)-ethyl]-4,7-dioxo-octahydro-pyrazino[1,2a]pyrimidin-6-yl}-acetic acid adamantan-2-yl ester]
- IC50: 5160 nM
